The target of one assay is T1, ULK1 kinase (Homo sapiens, UniProt O75385, E37A/K38A).
T1 construct: (residues 1-283; ID NO: 2); purchased Beryllium
T1 sequence (O75385 1-283 E37A/K38A): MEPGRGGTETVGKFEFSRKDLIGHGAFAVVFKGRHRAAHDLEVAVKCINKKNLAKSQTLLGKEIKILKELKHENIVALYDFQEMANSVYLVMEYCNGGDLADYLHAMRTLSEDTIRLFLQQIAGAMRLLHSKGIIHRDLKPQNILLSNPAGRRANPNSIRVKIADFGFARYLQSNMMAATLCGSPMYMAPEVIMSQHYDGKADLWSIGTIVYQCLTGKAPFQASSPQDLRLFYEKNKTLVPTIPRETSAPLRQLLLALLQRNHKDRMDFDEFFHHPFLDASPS
The experiment in a line: Biochemical assay for ULK1.3 (coupled pyruvate kinase/lactate dehydrogenase assay). Particulars: 0.1 nM ULK1 (residues 1-283), peptide substrate, 1 mM ATP. How it is done:
Activity of ULK1 kinase was determined spectroscopically using a coupled pyruvate kinase/lactate dehydrogenase assay that continuously monitors the ATP hydrolysis-dependent oxidation of NADH (e.g., Schindler et al. Science (2000) 289: 1938-1942). Assays were conducted in 384-well plates (100 uL final volume) using 0.1 nM ULK1 (from Beryllium), 0.075 mM peptide substrate (YANWLAASIYLDGKKK (SEQ ID NO: 5)), 1.5 units pyruvate kinase, 2.1 units lactate dehydrogenase, 1 mM phosphoenol pyruvate, 0.28 mM NADH and 1 mM ATP in assay buffer (100 mM Tris, pH 7.5, 15 mM MgCl2, 0.5 mM DTT, 0.004% (w/v) BSA, and 0.004% Triton X-100). Inhibition of ULK1 was measured by adding serial diluted test compound (final assay concentration of 1% DMSO). A decrease in absorption at 340 nm was monitored continuously for 6 hours at 30° C. on a multi-mode microplate reader (BioTek). The reaction rate was calculated using the 2-3 h time frame. The reaction rate at each concentration of compound was converted to percent inhibition using controls (i.e. reaction with no test compound and reaction with a known inhibitor) and IC50 values were calculated using software routines in Prism (GraphPad software).

Assay [1] has as its system ULK kinase substrate ATG13 (phospho-Serine 318 ATG13) in A549 cells. The experiment in a line: pATG13 ELISA in mutant KRas A549 cells in combination with trametinib. Format: cell-based. Particulars: A549 (KRAS mutant) human lung cancer cells, with 250 nM trametinib, overnight. As to the method: A549 (KRAS mutant) human lung cancer cells (6,000 cells/well) were added to a 384-well tissue-culture treated plate in 50 μL of pre-warmed DMEM medium supplemented with 10% characterized fetal bovine serum (Invitrogen, Carlsbad, Calif.), 100 units/mL penicillin G, and 100 μg/mL streptomycin and allowed to grow overnight at 37° C., 5% CO2, and 95% humidity. The following day, 10 μL of media containing trametinib or DMSO as a control was added to wells. The final concentration of trametinib in wells was 250 nM. A dose response of a test compound (0.6 μL per well) was added. DMSO (0.6 μL) was added to control wells. The plate was briefly shaken to mix wells and then incubated at 37° C. overnight. The next day, the media was aspirated and cells were washed with Dulbecco's Phosphate Buffered Saline (Gibco). Cells were lysed using MPER lysis buffer (Pierce, Rockford, Ill.) containing Halt Phosphatase and Protease Inhibitors (Pierce, Rockford, Ill.) and Phosphatase inhibitor cocktail 2 (Sigma, St. Louis, Mo.) at 4° C. for 10 minutes with shaking.
Cellular levels of phospho-Serine 318 ATG13 (pATG13) were measured via an ELISA method. Total ATG13 Antibody (Cell Signaling Cat #13273) was used to coat the wells. The plate was incubated at 4° C. overnight and washed with ELISA wash buffer (Biolegend Cat #421601). The wells were then blocked with assay diluent (Biolegend Cat #421203) for 1 hour at room temperature. Plate wells were washed with ELISA wash buffer. Cell lysate was added to wells and incubated at room temperature for 2 hours. Plate wells were washed with ELISA wash buffer. Biotinylated pS318-ATG13 antibody (Rockland Immunochemicals Cat #600-401-C49) was diluted in assay diluent and added to each well and incubated at room temperature for 1 hour. Plate wells were washed with ELISA wash buffer. Streptavidin linked to horseradish peroxidase (Thermo Fisher Cat #21140) was diluted in assay diluent and added to each well and incubated at room temperature for 1 hour. Plate wells were washed with ELISA wash buffer. High sensitivity TMB substrate (Biolegend Cat #421101) was added to each well and incubated at room temperature for 20 minutes. The reaction was stopped with 2N Sulfuric Acid. The plate was analyzed at on a plate reader measuring absorbance at 450 nm and 540 nm (background). Signal was calculated by first subtracting the background absorbance at 540 nm from the absorbance at 450 nm for each well. Next, the background corrected absorbance at 450 nm from blank wells was subtracted from test wells. Data was compared to control wells to determine % ATG13 phosphorylation. GraphPad Prism was used to calculate IC50 values.

In the next assay the target is T2, LRRK2 kinase (Homo sapiens, UniProt Q5S007).
T2 construct: (residues 970-2528; ID NO; 4); purchased Thermo Fisher
The experiment in a line: Biochemical assay for LRRK2 (coupled pyruvate kinase/lactate dehydrogenase assay). Particulars: 26.4 nM LRRK2 (residues 970-2528), peptide substrate, 1 mM ATP.

Here are results for five molecules from patent US11590134B2, “Aminopyrimidine amide autophagy inhibitors and methods of use thereof” (Deciphera Pharmaceuticals, LLC, priority 2019, dated 2023).

T2 sequence (Q5S007 with tags, fused parts or gaps): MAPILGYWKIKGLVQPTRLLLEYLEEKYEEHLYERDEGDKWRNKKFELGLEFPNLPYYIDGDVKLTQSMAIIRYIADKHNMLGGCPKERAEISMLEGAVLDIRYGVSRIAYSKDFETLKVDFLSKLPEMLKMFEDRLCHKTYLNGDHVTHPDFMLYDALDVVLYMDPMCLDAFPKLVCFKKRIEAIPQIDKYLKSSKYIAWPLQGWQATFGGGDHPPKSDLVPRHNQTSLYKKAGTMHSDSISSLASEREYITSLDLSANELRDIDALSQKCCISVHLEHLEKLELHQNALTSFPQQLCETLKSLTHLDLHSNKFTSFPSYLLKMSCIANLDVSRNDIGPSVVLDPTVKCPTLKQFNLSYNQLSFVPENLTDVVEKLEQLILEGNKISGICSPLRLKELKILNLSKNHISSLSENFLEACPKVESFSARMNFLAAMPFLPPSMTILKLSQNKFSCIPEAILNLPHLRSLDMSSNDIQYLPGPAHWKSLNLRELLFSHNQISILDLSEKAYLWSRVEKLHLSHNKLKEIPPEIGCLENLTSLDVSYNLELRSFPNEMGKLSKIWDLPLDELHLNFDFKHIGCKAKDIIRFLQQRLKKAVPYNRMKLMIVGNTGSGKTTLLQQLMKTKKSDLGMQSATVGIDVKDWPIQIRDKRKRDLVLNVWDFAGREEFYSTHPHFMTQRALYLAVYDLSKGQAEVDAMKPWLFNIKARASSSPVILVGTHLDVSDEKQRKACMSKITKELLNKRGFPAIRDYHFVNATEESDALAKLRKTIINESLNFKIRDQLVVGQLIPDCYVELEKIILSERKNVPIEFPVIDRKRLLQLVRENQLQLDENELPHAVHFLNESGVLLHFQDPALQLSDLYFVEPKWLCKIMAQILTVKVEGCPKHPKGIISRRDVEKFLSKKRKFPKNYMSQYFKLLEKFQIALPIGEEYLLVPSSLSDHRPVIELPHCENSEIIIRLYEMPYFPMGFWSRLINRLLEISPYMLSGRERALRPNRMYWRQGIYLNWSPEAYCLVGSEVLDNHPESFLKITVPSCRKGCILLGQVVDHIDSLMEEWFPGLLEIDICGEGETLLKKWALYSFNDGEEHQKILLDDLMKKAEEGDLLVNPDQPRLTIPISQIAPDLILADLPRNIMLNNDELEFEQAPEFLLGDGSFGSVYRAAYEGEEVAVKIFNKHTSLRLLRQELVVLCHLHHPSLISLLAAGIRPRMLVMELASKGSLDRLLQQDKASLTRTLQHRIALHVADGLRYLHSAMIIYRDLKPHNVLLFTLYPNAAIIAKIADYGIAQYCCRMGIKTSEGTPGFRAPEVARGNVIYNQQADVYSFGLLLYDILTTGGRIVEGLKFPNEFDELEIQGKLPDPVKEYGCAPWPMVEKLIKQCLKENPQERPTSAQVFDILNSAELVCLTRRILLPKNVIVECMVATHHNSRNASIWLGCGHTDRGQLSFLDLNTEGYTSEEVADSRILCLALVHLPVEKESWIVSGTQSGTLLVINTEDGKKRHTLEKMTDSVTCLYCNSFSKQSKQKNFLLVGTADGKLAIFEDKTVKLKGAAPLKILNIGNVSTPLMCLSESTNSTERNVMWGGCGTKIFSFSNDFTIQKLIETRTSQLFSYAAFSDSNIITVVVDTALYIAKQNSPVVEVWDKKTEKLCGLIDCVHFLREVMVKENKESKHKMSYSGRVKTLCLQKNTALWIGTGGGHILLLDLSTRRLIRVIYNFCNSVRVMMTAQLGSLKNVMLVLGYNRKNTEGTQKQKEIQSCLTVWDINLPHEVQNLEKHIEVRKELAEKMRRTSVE

`CC(C)c1cc(N2CCN(C)CC2)ccc1Nc1ncc(C(F)(F)F)c(NCCCNC(=O)C2CCC2)n1` [Example 3]: the figures for the IC50 (at ULK1 kinase; in assay [1]; on LRRK2 kinase) were 1 to 25 nM, 100 to 300 nM and 1 to 100 nM, respectively.
Taken in the same sequence, the figures for `COc1cc(N2CCN(C)CC2)ccc1Nc1ncc(C(F)(F)F)c(NCCCNC(=O)C2CCC2)n1` [Example 4] were 25 to 100 nM, 100 to 300 nM and 1 to 100 nM.
Taken in the same sequence, the figures for `CC(C)c1cc(N2CCN(C)CC2)ccc1Nc1ncc(Br)c(NCCCNC(=O)C2CCC2)n1` [Example 8] were 25 to 100 nM, 100 to 300 nM and 600 to 20000 nM.
For `Cc1cc(N2CCN(C)CC2)ccc1Nc1ncc(C(F)(F)F)c(NCCCNC(=O)C(C)(C)C)n1` [Example 12], the half-maximal inhibitory concentration (IC50) in assay [1] was in the range of 300 to 600 nM; at LRRK2 kinase it was 100 to 300 nM.
As to `CN1CCN(c2ccc(Nc3ncc(C(F)(F)F)c(NCCCNC(=O)C4CCC4)n3)c(C3CC3)c2)CC1` [Example 14], the values for the IC50 (against ULK1 kinase; in assay [1]; against LRRK2 kinase) were 1 to 25 nM, 10 to 100 nM and 100 to 300 nM, respectively.
